Here are results for 1 compound from US20080306230A1, “Composition and Associated Method” (GENERAL ELECTRIC COMPANY, priority 2007, published 2008).

This data set is described as follows: Solubility of the product as observed. It counts as physicochemical. Conditions: in words; water or methanol. As to the method: 5-norbornene-2-methanol (CAS 95-12-5, 1 gram) and sodium hydride (NaH, 60% dispersion in mineral oil, 0.6 grams) are dissolved in 50 milliliters of anhydrous THF. The mixture is refluxed overnight at 80 degrees C. After refluxing, 1,3-propane sultone (CAS 1120-71-4, 0.98 grams) in 20 milliliters of THF is added to the mixture in 10 minutes. After 5 hours, the solvent is removed by rotary evaporation and the reaction product is purified by column chromatography using silica and ethyl acetate/methanol (4:1) as eluent. […] The product yield is about 60 weight percent.
A ruthenium metal complex 1,3-bis(2,4,6-trimethylphenyl)-2-imidazolidinylidene)dichloro(phenylmethylene)(tricyclohexylphosphine)ruthenium (CAS No. 246047-72-3, 5 milligrams) is charged in a HPLC flask and the flask is degassed and purged with argon three times. Methylene chloride (CH2Cl2, 50 microliters) is injected into the flask using a syringe. The metal complex solution is cooled at −78 degrees Celsius in a dry ice and acetone bath. Norbornene sulfonate (10 milligrams, Sample 1 from Example 1) is charged into a second flask and degassed and the flask is backfilled with argon three times. Degassed methanol (500 microliters) is added to norbornene sulfonate using a syringe. The resulting mixture is also cooled at −78 degrees Celsius. […]

Turning to `O=S(=O)([O-])C1CC2C=CC1C2.[Na+]` (stereo not shown) [Sample 1, norbornene-sodium sulfonate], the solubility entry is given as “soluble in water or methanol”.
